In patent publication US20250257034A1, “INDOLE DERIVATIVES AS SEROTONERGIC AGENTS USEFUL FOR THE TREATMENT OF DISORDERS RELATED THERETO” (priority 2023, published 2025):
Like-named read-outs stand apart in the source and are kept apart here.

How the values were obtained:
[1] = Human liver microsomes stability; type: in vitro ADME; conditions: for half-life at 2 μM / microsomal CLint at 2 μM: 2 μM compound; for microsomal CLint at 2 μM: read-out: CLint (μL/min/mg protein); for CLint scaled at 2 μM: read-out: Scaled-up CLint
Description: (§1) The objective of this study was to estimate in vitro metabolic stability of exemplary compounds of Formula (I) or a pharmaceutically acceptable salt, solvate, and/or prodrug thereof in pooled human, male rat, and male mouse liver microsomes. The concentrations of compounds in reaction systems were evaluated by LC-MS/MS for estimating the stability in pooled human, male rat, and male mouse liver microsomes. The in vitro intrinsic clearances of test compounds were determined as well.
(§2) A master solution in the “Incubation Plate” containing phosphate buffer, ultra-pure H2O, MgCl2 solution and liver microsomes was made according to Table 33. The mixture was pre-warmed at 37° C. water bath for 5 minutes.
(§3) 40 μL of 10 mM nicotinamide adenine dinucleotide phosphate (NADPH) solution was added to each well. The final concentration of NADPH was 1 mM. The negative control samples were prepared by replacing NADPH with 40 μL of ultra-pure H2O. Samples were prepared in duplicate. Negative controls were prepared in singlet.
(§4) The reaction was started with the addition of 4 μL of 200 μM exemplary test compounds of the disclosure or control compounds to each master solution to get the final concentration of 2 μM. This study was performed in duplicate.
(§5) Aliquots of 50 μL were taken from the reaction solution at 0, 15, 30, 45, and 60 minutes. The reaction solutions were stopped by the addition of 4 volumes of cold methanol with IS (100 nM alprazolam, 200 nM imipramine, 200 nM labet alol and 2 μM ketoprofen). Samples were centrifuged at 3,220 g for 40 minutes. Aliquot of 90 μL of the supernatant was mixed with 90 μL of ultra-pure H2O and then was used for LC-MS/MS analysis.
(§6) LC/MS analysis was performed for all samples from this study using a Shimadzu liquid chromatograph separation system equipped with degasser DGU-20A5R; solvent delivery unit LC-30AD; system controller SIL-30AC; column oven CTO-30A; CTC Analytics HTC PAL System. Mass spectrometric analysis was performed using a Triple Quad™ 5500 instrument.
(§7) All calculations were carried out using Microsoft Excel. Peak area ratios of test compound to internal standard (listed in the below table) were determined from extracted ion chromatograms.
(§8) All calculations were carried out using Microsoft Excel. Peak areas were determined from extracted ion chromatograms. The slope value, k, was determined by linear regression of the natural logarithm of the remaining percentage of the parent drug vs. incubation time curve.
(§9) The in vitro half-life (in vitro t1/2) was determined from the slope value:
(§10) Conversion of the in vitro t1/2(min) into the in vitro intrinsic clearance (in vitro CLint, in μL/min/mg proteins) was done using the following equation (mean of duplicate determinations): […]
(§11) A master solution in the “Incubation Plate” containing phosphate buffer, ultra-pure H2O, MgCl2 solution and liver microsomes was made according to Table 63. The mixture was pre-warmed at 37° C. water bath for 5 minutes.
(§12) 40 μL of 10 mM NADPH solution was added to each well. The final concentration of NADPH was 1 mM. The negative control samples were prepared by replacing NADPH with 40 μL of ultra-pure H2O. Samples were prepared in duplicate. Negative controls were prepared in singlet.
(§13) Conversion of the in vitro t1/2(min) into the in vitro intrinsic clearance (in vitro C Lt, in μL/min/mg proteins) was done using the following equation (mean of duplicate determinations): […]

[2] = Mouse liver microsomes stability; type: in vitro ADME; conditions: for microsomal CLint at 2 μM / half-life at 2 μM / CLint scaled at 2 μM: male; for microsomal CLint at 2 μM: mouse, read-out: CLint (μL/min/mg protein); for microsomal CLint at 2 μM / half-life at 2 μM: 2 μM compound; for CLint scaled at 2 μM: read-out: Scaled-up CLint
Description: as §1, §2, §3, §4, §5, §6, §7, §8, §9, §10, §11, §12, §13

5-HT2B receptor = 5-HT2B receptor (Homo sapiens, UniProt P41595); assay: Human 5-HT2B radioligand binding assay ([3H]-LSD); design: host or cells: cell membrane, dosed as 1 unit/well
Description: The objective of this study was to evaluate the binding properties of test compounds on 5-HT2B.
1) The assay buffer was prepared following Table 25-below.
2) Eight doses of reference and test compounds starting from 10 mM stock solution as requested by 5-fold serial dilutions with 100% (v/v) DMSO.
3) UniFilter-96 GF/B plate was pretreated: • a. 50 μl/well of 0.5% (v/v) PEI to UniFilter-96 G F/B plates. The plates were sealed and incubated at 4° C. for 3 hrs. • b. After incubation, the plates were washed 3 times with ice-cold wash buffer (50 mM Tris, pH7.4).
4) Assay plate preparation: • a. Cell membrane was diluted with assay buffer and 330 μl/well added to 96 round deep well plates to reach a concentration of 1 unit/well. • b. Eight concentrations of reference or test compounds were prepared and 110 μl/well added to 96 round deep well plates. • c. [3H]-LSD was diluted with assay buffer to 5 nM (5×final concentration) and 110 μl/well was added to 96 round deep well plates.
5) The plate was centrifuged at 1000 rpm for 30 secs and then agitate at 600 rpm, R.T. for 5 min.
6) The plates were sealed and incubated at 37° C. for 90 min.
7) The incubation was stopped by vacuum filtration onto GF/B filter plates followed by 4 times washing with ice-cold wash buffer (50 mM Tris, pH7.4).
9) The filter plates were sealed and 40 μl/well of scintillation cocktail was added.
10) The plate was read using a Microbeta2 microplate counter.
For reference and test compounds, the results are expressed as % Inhibition, using the normalization equation: N=100-100x(U-C2)/(C1-C2), where U is the unknown value, Cl is the average of high controls, and C2 is the average of low controls. The IC50 is determined by fitting percentage of inhibition as a function of compound concentrations with Hill equation using XLfit.
1) The assay buffer was prepared following Table 54 below.
7) The incubation was stopped by vacuum filtration onto G F/B filter plates followed by 4 times washing with ice-cold wash buffer (50 mM Tris, pH7.4).
For reference and test compounds, the results are expressed as % Inhibition, using the normalization equation: N=100−100×(U−C2)/(C1−C2), where U is the unknown value, C1 is the average of high controls, and C2 is the average of low controls. The IC50 is determined by fitting percentage of inhibition as a function of compound concentrations with Hill equation using XLfit.

[3] = Human liver microsomes, 0.5 mg/mL microsomes, 1 mM NADPH, 37° C
[4] = Human liver microsomes, 0.5 mg/mL microsomes, 1 mM NADPH
[5] = liver microsomes, Mouse liver microsomes, 0.5 mg/mL microsomes, 1 mM NADPH
[6] = Mouse liver microsomes, 0.5 mg/mL microsomes, 1 mM NADPH, 37° C
[7] = human liver microsomes, 0.5 mg/mL
[8] = pooled liver microsomes, mouse liver microsomes, 0.5 mg/mL

5-HT2B receptor, sequence (P41595 whole entry): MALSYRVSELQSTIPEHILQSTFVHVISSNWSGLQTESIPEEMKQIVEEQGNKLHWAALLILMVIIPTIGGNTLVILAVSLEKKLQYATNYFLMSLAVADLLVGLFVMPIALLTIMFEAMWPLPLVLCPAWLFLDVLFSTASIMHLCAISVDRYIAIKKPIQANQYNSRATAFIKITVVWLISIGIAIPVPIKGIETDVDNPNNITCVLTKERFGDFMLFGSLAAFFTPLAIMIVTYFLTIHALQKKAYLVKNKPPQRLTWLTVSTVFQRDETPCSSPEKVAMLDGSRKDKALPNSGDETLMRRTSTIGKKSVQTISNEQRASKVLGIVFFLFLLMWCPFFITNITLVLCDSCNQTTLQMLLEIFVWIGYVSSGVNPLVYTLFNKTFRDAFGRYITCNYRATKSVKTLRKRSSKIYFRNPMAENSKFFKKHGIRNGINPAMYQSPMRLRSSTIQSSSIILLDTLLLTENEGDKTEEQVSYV

## [2H]C([2H])([2H])N(CCc1c[nH]c2ccc(SC)cc12)C([2H])([2H])[2H] [Compound I-1, N,N-Bis(methyl-d3)-2-(5-(methylthio)-1H-indol-3-yl)ethan-1-amine]
[1]; Human liver microsomes
  Predicted hepatic CL: 19.31 mL/min/kg
  CLint scaled at 2 μM: 288 mL/min/kg
[1]; [3]
  half-life at 2 μM: 6.04 min
[1]; [4]
  microsomal CLint at 2 μM: 230 µL/min/mg
[2]; Mouse liver microsomes
  Predicted hepatic CL: 81.96 mL/min/kg
  CLint scaled at 2 μM: 918 mL/min/kg
[2]; [5]
  microsomal CLint at 2 μM: 210 µL/min/mg
[2]; [6]
  half-life at 2 μM: 6.61 min
5-HT2B receptor
  IC50: 74.5 nM
  Ki: 38.6 nM

## CCN(CC)CCc1c[nH]c2ccc(SC)cc12 [Compound I-12, N,N-Diethyl-2-(5-(methylthio)-1H-indol-3-yl)ethan-1-amine]
[1]; Human liver microsomes
  Predicted hepatic CL: 15.84 mL/min/kg
  CLint scaled at 2 μM: 67.5 mL/min/kg
[1]; [3]
  half-life at 2 μM: 25.8 min
[1]; [4]
  microsomal CLint at 2 μM: 53.8 µL/min/mg
[2]; Mouse liver microsomes
  Predicted hepatic CL: 82.50 mL/min/kg
  CLint scaled at 2 μM: 990 mL/min/kg
[2]; [5]
  microsomal CLint at 2 μM: 226 µL/min/mg
[2]; [6]
  half-life at 2 μM: 6.13 min
5-HT2B receptor
  IC50: 451 nM
  Ki: 233 nM

## CCN(C)CCc1c[nH]c2ccc(SC)cc12 [Compound I-13, N-Ethyl-N-methyl-2-(5-(methylthio)-1H-indol-3-yl)ethan-1-amine]
[1]; Human liver microsomes
  Predicted hepatic CL: 18.16 mL/min/kg
  CLint scaled at 2 μM: 148 mL/min/kg
[1]; [3]
  half-life at 2 μM: 11.7 min
[1]; [4]
  microsomal CLint at 2 μM: 118 µL/min/mg
[2]; Mouse liver microsomes
  Predicted hepatic CL: >84.35 mL/min/kg
  CLint scaled at 2 μM: > 1340 mL/min/kg
[2]; [5]
  microsomal CLint at 2 μM: > 307 µL/min/mg
[2]; [6]
  half-life at 2 μM: < 4.51 min
5-HT2B receptor
  IC50: 64 nM
  Ki: 33.1 nM

## CSc1ccc2[nH]cc(CCN(C(C)C)C(C)C)c2c1 [Compound I-17, N-Isopropyl-N-(2-(5-(methylthio)-1H-indol-3-yl)ethyl)propan-2-amine]
[1]; Human liver microsomes
  Predicted hepatic CL: 19.11 mL/min/kg
  CLint scaled at 2 μM: 249 mL/min/kg
[1]; [3]
  half-life at 2 μM: 6.99 min
[1]; [4]
  microsomal CLint at 2 μM: 198 µL/min/mg
[2]; Mouse liver microsomes
  Predicted hepatic CL: >84.35 mL/min/kg
  CLint scaled at 2 μM: > 1340 mL/min/kg
[2]; [5]
  microsomal CLint at 2 μM: > 307 µL/min/mg
[2]; [6]
  half-life at 2 μM: < 4.51 min
5-HT2B receptor
  IC50: 221 nM
  Ki: 114 nM

## CSc1ccc2[nH]cc(CCN(C)C(C)C)c2c1 [Compound I-19, N-Methyl-N-(2-(5-(methylthio)-1H-indol-3-yl)ethyl)propan-2-amine]
[1]; Human liver microsomes
  Predicted hepatic CL: 16.93 mL/min/kg
  CLint scaled at 2 μM: 92.9 mL/min/kg
[1]; [3]
  half-life at 2 μM: 18.7 min
[1]; [4]
  microsomal CLint at 2 μM: 74.1 µL/min/mg
[2]; Mouse liver microsomes
  Predicted hepatic CL: 78.36 mL/min/kg
  CLint scaled at 2 μM: 606 mL/min/kg
[2]; [5]
  microsomal CLint at 2 μM: 138 µL/min/mg
[2]; [6]
  half-life at 2 μM: 10 min
5-HT2B receptor
  IC50: 276 nM
  Ki: 143 nM

## COc1ccc2[nH]cc(CCN(C)CCOC(F)F)c2c1 [Compound I-71, 2-(Difluoromethoxy)-N-(2-(5-methoxy-1H-indol-3-yl)ethyl)-N-methylethan-1-amine]
[1]; human liver microsomes
  Predicted hepatic CL: 17.80 mL/min/kg
  CLint scaled at 2 μM: 127 mL/min/kg
[1]; [7]
  half-life at 2 μM: 13.7 min
  microsomal CLint at 2 μM: 101 µL/min/mg
[1]; human liver microsomes, With Cofactors, 0 min
  Remaining Percentage (%): 100.00%
[1]; human liver microsomes, With Cofactors, 30 min
  Remaining Percentage (%): 26.55%
[1]; human liver microsomes, With Cofactors, 60 min
  Remaining Percentage (%): 4.78%
[1]; human liver microsomes, Without Cofactors, 0 min
  Remaining Percentage (%): 100.00%
[1]; human liver microsomes, Without Cofactors, 30 min
  Remaining Percentage (%): 98.77%
[1]; human liver microsomes, Without Cofactors, 60 min
  Remaining Percentage (%): 104.91%
[2]; [8]
  microsomal CLint at 2 μM: 178 µL/min/mg
  half-life at 2 μM: 7.8 min
[2]; pooled liver microsomes, mouse liver microsomes
  CLint scaled at 2 μM: 777 mL/min/kg
[2]; mouse liver microsomes
  Predicted hepatic CL: 80.66 mL/min/kg
[2]; mouse liver microsomes, With Cofactors, 0 min
  Remaining Percentage (%): 100.00%
[2]; mouse liver microsomes, With Cofactors, 30 min
  Remaining Percentage (%): 6.96%
[2]; mouse liver microsomes, With Cofactors, 60 min
  Remaining Percentage (%): 0.66%
[2]; mouse liver microsomes, Without Cofactors, 0 min
  Remaining Percentage (%): 100.00%
[2]; mouse liver microsomes, Without Cofactors, 30 min
  Remaining Percentage (%): 105.81%
[2]; mouse liver microsomes, Without Cofactors, 60 min
  Remaining Percentage (%): 109.68%
5-HT2B receptor; [3H]-LSD displacement (Table 55), read-out: 5-HT2B, IC50
  IC50: 171 nM
5-HT2B receptor; [3H]-LSD displacement (Table 55), read-out: 5-HT2B, Ki
  Ki: 88.6 nM
